Assay results as given in US12419890B2, “Administration of sumo-activating enzyme inhibitor and checkpoint inhibitors” (Takeda Pharmaceutical Company Limited, priority 2019, dated 2025).

Test system: WEHI-3 syngeneic mouse myelomonocytic leukemia-derived subcutaneous tumor
Experiment: WEHI-3 Study 5: mouse WEHI-3 syngeneic tumor model, individual tumor volume
Type: in vivo
Conditions: Compound I-263a 7.5 mg/kg IV BIW till Day 14
Method: WEHI-3 Study 5: WEHI-3 is a mouse myelomonocytic leukemia cell line. WEHI-3 mouse syngeneic tumor model was generated by subcutaneous inoculation with 0.1×10^6 WEHI-3 cells (cell suspension) in 9 weeks old female BALB/c mice (SINO-British SIPPR/BK Lab Animal Ltd. Shanghai, China) in the flank. When the mean tumor volume reached approximately 30 mm^3, the animals were randomized into one vehicle control and five treatment groups (n=8/group). Mice were then dosed with 20% HPbCD or Compound I-263a or anti-mouse PD-1 antibody or anti-mouse CTLA-4 antibody over a 21-day period. Tumor growth and body weight were measured twice per week during the treatment and post-treatment periods, and mice were humanely euthanized once they had reached their humane endpoint.
Study 5: A 0.75 mg/mL stock solution of Compound I-263a was formulated weekly in 20% HPβCD and administered intravenously (IV) based on exact animal body weight on each day of treatment, using a dosing volume of 10 mL/kg body weight. Final doses received were 7.5 mg/kg. Dosing volume for Compound I-263a was 0.2 mL. Anti-mouse PD1 antibody (anti-mPD-1) (Bio X Cell, 10 Technology Drive, Suite 2B, West Lebanon, NH 03784) was formulated prior to each injection at 2.0 mg/mL in Phosphate-buffered saline (PBS) and administered intraperitoneally (IP) based on exact body weight on each day of treatment, using a dosing volume of 5 mL/kg resulting in a 10 mg/kg dose. Dosing volume for anti-mPD-1 was 0.1 mL. Anti-mouse CTLA-4 antibody (anti-mCTLA-4) (Bio X Cell, 10 Technology Drive, Suite 2B, West Lebanon, NH 03784) was formulated prior to each injection at 2.0 mg/mL in Phosphate-buffered saline (PBS) and administered intraperitoneally (IP) based on exact body weight on each day of treatment, using a dosing volume of 5 mL/kg resulting in a 10 mg/kg dose. […]
Tumors were measured twice weekly using vernier calipers. Tumor volumes were calculated using standard equation: V=W^2×L/2, where V=volume, W=width, and L=length for the tumor. […] Tumor size and body weight were measured twice a week for the duration of the study. […]

## Cc1sc(C(=O)c2cncnc2N[C@@H]2C[C@H](COS(N)(=O)=O)[C@@H](O)C2)cc1[C@@H]1NCCc2ccc(Cl)cc21 [Compound I-263a, [(1R,2S,4R)-4-{[5-({4-[(1R)-7-chloro-1,2,3,4-tetrahydroisoquinolin-1-yl]-5-methyl-2-thienyl}carbonyl)pyrimidin-4-yl]amino}-2-hydroxycyclopentyl]methyl sulfamate]
anti-mPD-1 10 mg/kg IP BIW till Day 10, anti-mCTLA-4 10 mg/kg IP Q4D till Day 8, 8 tumors/group
  tumor growth inhibition / antitumor activity relative to vehicle: modest inhibition
Delay to 11-14 days
  tumor growth delays: one
Delays to 7-11 days, of the 8 implanted tumors
  tumors with slight tumor growth delay: 6
